{
  "source": "ChEMBL document CHEMBL1201862",
  "about": "“PubChem BioAssay data set” (2004)",
  "key": {"[1]": {"assay": "loss of viability in HepG2 cells – cell-based, CellTiter-Glo, cherry-picked, cytotoxicity control for Shn3 inhibitor project, dose response (AID 624134)", "type": "functional"}, "[2]": {"biological_target": "Dual specificity tyrosine-phosphorylation-regulated kinase 1A (Rattus norvegicus, UniProt Q63470)", "type": "biochemical, Homo sapiens"}, "[3]": {"biological_target": "Mu-type opioid receptor (Homo sapiens, UniProt P35372)", "sequence (P35372 whole entry)": "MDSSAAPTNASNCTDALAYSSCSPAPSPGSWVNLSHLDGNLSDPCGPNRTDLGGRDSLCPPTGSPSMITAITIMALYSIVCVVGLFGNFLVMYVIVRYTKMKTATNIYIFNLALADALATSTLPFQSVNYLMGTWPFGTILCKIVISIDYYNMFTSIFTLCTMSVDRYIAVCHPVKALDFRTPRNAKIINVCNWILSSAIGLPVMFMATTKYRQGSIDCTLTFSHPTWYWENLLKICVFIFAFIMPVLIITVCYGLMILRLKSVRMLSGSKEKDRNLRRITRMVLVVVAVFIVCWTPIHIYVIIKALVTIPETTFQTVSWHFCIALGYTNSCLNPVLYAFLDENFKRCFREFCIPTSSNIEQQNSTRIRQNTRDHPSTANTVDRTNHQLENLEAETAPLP", "assay": "Counterscreen for agonists of heterodimerization of the mu 1 (OPRM1) and delta 1 (OPRD1) opioid receptors: Luminescence-based cell-based high throughput dose response assay to identify agonists of OPRM1 homodimerization.", "type": "functional"}, "[4]": {"biological_target": "T1, Mannose-6-phosphate isomerase (Homo sapiens, UniProt P34949)", "T1 sequence (P34949 whole entry)": "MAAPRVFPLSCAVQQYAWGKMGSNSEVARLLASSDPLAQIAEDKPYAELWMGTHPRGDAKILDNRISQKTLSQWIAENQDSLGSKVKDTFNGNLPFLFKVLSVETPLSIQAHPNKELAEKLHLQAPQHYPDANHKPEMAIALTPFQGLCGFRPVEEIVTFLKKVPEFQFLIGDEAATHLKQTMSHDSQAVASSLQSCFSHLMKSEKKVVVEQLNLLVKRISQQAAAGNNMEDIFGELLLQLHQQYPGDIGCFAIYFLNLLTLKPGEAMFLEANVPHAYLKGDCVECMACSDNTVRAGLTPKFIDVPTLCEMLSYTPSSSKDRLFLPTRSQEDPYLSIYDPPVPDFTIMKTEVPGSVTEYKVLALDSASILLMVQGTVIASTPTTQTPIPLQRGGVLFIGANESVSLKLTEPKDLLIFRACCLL", "assay": "MPI inhibition at elevated mannose 6-phosphate – biochemical, fluorescence intensity, high mannose 6-phosphate, primary screen (AID 1220)"}, "[5]": {"assay": "blockers of bursicon-stimulated LGR2 cAMP reporter – cell-based, HEK293, CRE-luciferase reporter, cherry pick, set 2, dose response (AID 743343);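 note: transfected cells were stimulated with diluted bursicon conditioned medium after compound addition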", "type": "functional"}, "[6]": {"biological_target": "T2, Sentrin-specific protease 7 (Homo sapiens, UniProt Q9BQF6)", "T2 sequence (Q9BQF6 whole entry)": "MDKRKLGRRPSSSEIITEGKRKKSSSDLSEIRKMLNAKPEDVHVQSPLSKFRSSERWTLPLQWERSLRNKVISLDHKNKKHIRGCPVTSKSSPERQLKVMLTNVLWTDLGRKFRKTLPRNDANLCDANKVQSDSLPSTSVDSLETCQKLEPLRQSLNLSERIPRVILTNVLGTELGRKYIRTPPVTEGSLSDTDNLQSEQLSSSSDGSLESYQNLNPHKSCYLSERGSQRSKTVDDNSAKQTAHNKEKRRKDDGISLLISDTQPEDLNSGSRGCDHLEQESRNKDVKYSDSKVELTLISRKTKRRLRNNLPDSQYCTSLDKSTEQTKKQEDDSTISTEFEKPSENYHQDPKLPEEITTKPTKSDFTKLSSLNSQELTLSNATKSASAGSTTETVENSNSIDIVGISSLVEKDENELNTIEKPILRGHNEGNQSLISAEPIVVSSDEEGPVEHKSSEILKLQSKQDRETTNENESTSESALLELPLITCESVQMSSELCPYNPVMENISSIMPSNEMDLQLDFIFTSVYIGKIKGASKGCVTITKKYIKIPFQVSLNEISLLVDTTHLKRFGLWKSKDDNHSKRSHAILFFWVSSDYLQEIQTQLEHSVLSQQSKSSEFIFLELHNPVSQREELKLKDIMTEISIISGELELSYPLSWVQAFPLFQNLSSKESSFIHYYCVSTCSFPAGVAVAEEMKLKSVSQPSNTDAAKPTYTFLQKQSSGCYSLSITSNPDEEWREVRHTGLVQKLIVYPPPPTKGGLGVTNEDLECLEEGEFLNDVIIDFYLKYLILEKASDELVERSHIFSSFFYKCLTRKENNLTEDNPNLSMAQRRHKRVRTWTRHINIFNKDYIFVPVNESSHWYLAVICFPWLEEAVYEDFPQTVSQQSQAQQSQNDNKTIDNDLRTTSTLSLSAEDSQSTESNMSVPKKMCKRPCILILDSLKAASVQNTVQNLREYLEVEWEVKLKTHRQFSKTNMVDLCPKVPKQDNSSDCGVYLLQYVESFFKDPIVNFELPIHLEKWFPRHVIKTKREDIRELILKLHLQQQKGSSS", "type": "functional"}, "[7]": {"biological_target": "Serine/threonine-protein kinase D2 (Homo sapiens, UniProt Q9BZL6)", "sequence (Q9BZL6 whole entry)": "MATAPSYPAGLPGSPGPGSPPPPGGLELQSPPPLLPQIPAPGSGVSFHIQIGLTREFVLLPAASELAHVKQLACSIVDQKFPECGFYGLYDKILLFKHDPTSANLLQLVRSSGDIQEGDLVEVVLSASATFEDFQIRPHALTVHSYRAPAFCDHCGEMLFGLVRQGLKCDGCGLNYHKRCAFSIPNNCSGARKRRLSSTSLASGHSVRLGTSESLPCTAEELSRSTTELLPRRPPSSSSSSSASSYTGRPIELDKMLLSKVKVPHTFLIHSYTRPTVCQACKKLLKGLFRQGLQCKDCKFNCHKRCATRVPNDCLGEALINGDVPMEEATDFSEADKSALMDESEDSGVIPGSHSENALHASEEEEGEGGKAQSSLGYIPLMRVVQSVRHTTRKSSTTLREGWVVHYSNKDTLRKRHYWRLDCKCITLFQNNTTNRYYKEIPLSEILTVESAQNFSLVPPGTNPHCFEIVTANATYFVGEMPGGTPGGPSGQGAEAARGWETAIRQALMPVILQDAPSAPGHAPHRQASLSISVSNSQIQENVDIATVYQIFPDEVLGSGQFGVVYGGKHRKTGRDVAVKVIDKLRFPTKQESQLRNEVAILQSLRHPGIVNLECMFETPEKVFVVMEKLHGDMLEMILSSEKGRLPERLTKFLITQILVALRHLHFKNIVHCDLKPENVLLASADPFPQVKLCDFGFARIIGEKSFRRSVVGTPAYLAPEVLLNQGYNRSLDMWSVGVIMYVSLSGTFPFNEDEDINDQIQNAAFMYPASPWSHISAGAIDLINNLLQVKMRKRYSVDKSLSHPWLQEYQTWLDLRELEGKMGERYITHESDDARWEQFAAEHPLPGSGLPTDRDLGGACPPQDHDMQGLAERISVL", "type": "functional"}, "[8]": {"biological_target": "T3, Protein kinase C zeta type (Homo sapiens, UniProt Q05513)", "T3 sequence (Q05513 whole entry)": "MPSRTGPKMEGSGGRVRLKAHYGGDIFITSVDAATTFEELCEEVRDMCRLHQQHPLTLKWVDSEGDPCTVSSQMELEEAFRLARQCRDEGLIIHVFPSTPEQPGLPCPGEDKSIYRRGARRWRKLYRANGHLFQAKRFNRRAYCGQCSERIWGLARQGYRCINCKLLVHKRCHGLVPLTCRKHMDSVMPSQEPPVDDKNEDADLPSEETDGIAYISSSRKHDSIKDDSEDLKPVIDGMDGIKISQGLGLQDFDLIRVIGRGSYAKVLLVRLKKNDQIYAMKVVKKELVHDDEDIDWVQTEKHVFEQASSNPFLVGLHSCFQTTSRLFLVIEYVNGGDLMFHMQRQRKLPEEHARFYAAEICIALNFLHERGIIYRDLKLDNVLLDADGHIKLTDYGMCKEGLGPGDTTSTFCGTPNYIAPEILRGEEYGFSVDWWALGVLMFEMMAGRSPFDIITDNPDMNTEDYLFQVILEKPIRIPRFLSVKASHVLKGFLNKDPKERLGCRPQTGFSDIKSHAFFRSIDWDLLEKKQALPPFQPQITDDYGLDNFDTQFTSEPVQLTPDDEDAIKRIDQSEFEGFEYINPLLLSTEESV", "type": "functional"}, "[9]": {"biological_target": "Phosphorylase b kinase gamma catalytic chain, liver/testis isoform (Homo sapiens, UniProt P15735)", "type": "functional"}, "[10]": {"biological_target": "Mitogen-activated protein kinase 12 (Homo sapiens, UniProt P53778)", "type": "functional"}, "[11]": {"biological_target": "Homeodomain-interacting protein kinase 4 (Homo sapiens, UniProt Q8NE63)", "sequence (Q8NE63 whole entry)": "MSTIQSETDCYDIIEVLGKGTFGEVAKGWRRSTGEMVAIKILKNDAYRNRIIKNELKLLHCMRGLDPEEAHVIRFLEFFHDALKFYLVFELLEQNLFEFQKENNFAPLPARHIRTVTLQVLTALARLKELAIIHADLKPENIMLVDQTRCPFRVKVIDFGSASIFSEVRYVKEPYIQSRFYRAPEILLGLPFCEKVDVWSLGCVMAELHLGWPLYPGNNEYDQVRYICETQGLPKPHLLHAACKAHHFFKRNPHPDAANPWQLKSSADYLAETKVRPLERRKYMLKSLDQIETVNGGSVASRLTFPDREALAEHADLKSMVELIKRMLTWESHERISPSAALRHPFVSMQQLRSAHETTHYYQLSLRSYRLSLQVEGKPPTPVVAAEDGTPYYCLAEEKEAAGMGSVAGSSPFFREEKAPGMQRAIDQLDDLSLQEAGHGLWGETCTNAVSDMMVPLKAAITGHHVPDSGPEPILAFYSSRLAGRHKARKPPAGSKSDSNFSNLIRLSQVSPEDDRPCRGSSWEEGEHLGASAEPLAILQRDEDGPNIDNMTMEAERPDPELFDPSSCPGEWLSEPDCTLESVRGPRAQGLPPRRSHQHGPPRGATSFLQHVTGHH", "type": "functional"}, "[12]": {"biological_target": "Receptor tyrosine-protein kinase erbB-4 (Homo sapiens, UniProt Q15303)", "type": "functional"}, "[13]": {"biological_target": "Mitogen-activated protein kinase kinase kinase kinase 5 (Homo sapiens, UniProt Q9Y4K4)", "sequence (Q9Y4K4 whole entry)": "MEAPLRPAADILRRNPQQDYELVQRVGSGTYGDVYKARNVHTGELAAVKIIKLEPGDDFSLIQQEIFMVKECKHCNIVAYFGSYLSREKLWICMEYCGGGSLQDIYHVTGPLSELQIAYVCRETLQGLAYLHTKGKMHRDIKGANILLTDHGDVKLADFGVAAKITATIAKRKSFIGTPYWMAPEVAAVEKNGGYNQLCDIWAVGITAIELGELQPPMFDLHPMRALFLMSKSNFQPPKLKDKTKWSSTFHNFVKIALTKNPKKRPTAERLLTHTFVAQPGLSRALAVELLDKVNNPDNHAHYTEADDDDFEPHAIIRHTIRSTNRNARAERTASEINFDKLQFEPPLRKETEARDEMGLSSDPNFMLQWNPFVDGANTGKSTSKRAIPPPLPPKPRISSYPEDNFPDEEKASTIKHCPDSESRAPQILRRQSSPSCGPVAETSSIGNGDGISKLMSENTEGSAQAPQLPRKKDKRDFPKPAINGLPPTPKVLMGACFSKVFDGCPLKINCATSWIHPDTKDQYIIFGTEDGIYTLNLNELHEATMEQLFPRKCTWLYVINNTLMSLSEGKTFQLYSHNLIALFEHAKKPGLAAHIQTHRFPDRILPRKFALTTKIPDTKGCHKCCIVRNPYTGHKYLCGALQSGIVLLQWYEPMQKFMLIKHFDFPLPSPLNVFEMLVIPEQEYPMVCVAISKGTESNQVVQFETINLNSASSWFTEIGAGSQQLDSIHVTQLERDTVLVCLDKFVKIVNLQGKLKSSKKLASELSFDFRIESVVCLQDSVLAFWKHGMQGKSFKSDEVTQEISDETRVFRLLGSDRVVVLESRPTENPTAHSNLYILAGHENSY", "type": "functional"}, "[14]": {"biological_target": "Serine/threonine-protein kinase PAK 1 (Homo sapiens, UniProt Q13153)", "sequence (Q13153 whole entry)": "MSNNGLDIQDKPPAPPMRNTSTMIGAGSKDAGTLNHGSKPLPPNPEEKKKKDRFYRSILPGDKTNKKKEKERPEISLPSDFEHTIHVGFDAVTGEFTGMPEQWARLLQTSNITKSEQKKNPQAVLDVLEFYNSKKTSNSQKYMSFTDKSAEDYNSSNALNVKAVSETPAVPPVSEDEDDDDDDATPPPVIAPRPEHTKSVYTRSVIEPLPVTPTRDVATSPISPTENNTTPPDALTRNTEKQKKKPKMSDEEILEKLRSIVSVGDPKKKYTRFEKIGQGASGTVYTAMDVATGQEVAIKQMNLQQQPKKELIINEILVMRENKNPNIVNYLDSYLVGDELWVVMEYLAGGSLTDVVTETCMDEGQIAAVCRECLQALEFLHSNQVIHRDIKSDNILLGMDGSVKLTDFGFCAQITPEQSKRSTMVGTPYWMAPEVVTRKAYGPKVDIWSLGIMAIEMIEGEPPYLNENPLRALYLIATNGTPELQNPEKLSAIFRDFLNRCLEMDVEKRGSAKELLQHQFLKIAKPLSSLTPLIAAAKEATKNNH", "type": "functional"}, "[15]": {"biological_target": "Non-receptor tyrosine-protein kinase TYK2 (Homo sapiens, UniProt P29597)", "sequence (P29597 whole entry)": "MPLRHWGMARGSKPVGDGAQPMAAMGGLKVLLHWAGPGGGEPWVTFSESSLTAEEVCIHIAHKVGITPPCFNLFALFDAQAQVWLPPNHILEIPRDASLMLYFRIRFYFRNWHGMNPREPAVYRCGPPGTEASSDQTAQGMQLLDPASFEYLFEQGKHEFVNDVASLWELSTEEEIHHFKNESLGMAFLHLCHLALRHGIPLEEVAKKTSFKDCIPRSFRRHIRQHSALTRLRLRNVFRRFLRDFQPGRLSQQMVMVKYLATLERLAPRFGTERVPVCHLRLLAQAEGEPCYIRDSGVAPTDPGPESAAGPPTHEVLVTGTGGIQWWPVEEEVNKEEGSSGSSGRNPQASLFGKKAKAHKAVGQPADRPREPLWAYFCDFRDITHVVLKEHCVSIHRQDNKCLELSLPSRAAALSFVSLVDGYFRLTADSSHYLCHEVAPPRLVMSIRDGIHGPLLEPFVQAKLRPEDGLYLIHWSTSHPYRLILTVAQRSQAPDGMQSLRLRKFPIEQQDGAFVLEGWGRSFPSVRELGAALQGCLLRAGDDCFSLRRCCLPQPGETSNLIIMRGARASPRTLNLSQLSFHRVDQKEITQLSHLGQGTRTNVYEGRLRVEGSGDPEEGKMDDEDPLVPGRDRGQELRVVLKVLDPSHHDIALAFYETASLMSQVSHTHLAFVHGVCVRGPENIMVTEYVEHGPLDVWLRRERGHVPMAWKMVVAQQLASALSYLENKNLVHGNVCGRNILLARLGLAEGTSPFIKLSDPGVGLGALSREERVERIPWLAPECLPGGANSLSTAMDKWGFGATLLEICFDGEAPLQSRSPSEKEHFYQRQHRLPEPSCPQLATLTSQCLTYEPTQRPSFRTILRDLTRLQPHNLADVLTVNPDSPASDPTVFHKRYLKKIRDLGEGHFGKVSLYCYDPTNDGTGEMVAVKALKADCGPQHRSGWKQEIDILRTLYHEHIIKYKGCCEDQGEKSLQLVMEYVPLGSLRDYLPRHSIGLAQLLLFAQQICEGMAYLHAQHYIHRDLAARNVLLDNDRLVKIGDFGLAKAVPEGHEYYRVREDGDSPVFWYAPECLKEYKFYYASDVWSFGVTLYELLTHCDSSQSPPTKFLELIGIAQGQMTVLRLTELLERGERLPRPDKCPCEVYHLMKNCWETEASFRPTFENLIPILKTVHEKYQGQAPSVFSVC", "type": "functional"}, "[16]": {"biological_target": "Calcium/calmodulin-dependent protein kinase type II subunit gamma (Homo sapiens, UniProt Q13555)", "sequence (Q13555 whole entry)": "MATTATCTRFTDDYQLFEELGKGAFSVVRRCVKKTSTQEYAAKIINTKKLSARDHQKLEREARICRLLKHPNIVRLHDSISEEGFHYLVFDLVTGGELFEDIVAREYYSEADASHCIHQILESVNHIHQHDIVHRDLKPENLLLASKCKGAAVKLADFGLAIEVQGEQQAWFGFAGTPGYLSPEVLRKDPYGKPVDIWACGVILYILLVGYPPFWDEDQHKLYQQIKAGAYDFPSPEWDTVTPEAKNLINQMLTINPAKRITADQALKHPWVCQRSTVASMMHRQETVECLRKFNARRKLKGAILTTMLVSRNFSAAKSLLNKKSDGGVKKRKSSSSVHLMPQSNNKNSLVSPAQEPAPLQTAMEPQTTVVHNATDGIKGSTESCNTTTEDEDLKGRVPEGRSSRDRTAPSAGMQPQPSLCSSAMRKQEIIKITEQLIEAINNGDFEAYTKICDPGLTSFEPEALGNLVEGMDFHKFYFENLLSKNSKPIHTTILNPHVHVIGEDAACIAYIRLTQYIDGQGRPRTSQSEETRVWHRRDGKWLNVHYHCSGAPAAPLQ", "type": "functional"}},
  "note": "Active and inactive are the calls of the source.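 Throughout, for EC50: U2OS cells expressing OPRM1 and beta-arrestin as split beta-galactosidase partners.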",
  "data": [
    {"compound": "CCCc1nc2c(=O)n(C)c(=O)nc-2n(C)n1", "values": [
      {"measurement": "AC50", "setting": "[1]", "value": "4.96 µM (active)"},
      {"measurement": "AC50", "setting": "[2]", "value": "249 nM (active)"},
      {"measurement": "EC50", "setting": "[3]", "value": "> 92.5 µM (inactive)"},
      {"measurement": "IC50", "setting": "[4]", "value": "13.2 µM (active)"},
      {"measurement": "AC50", "setting": "[5]", "value": "5.47 µM (active)"}
    ]},
    {"compound": "CC(=O)c1ccc(NC2=C(N3CCOCC3)C(=O)c3ccccc3C2=O)cc1", "values": [
      {"measurement": "IC50", "setting": "[6]", "value": "18 µM (active)"}
    ]},
    {"compound": "COc1cc2ncn(-c3cc(OCc4ccccc4C(F)(F)F)c(C(N)=O)s3)c2cc1OC", "note": "[GW843682X]", "values": [
      {"measurement": "Ki", "setting": "[7]", "value": "> 10 µM (inactive)"},
      {"measurement": "Ki", "setting": "[8]", "value": "> 7.94 µM (inactive)"},
      {"measurement": "Ki", "setting": "[9]", "value": "> 5.01 µM (inactive)"},
      {"measurement": "Ki", "setting": "[10]", "value": "> 6.31 µM (inactive)"},
      {"measurement": "Ki", "setting": "[11]", "value": "> 7.94 µM (inactive)"},
      {"measurement": "Ki", "setting": "[12]", "value": "> 3.98 µM (inactive)"},
      {"measurement": "Ki", "setting": "[13]", "value": "200 nM (active)"},
      {"measurement": "Ki", "setting": "[14]", "value": "> 10 µM (inactive)"},
      {"measurement": "Ki", "setting": "[15]", "value": "> 2 µM (inactive)"},
      {"measurement": "Ki", "setting": "[16]", "value": "> 6.31 µM (inactive)"}
    ]}
  ]
}
